# Source: patent US11246907B2, “Immunosuppressive agents and their use in therapy” (Norwegian University of Science and Technology, priority 2013, dated 2022)
# Ends that are not written are not given here.
# Legend:
# [1] = system: ERK1 Thr202/Tyr204 and ERK2 Thr185/Tyr187 phosphorylation; assay: Western blot of ERK1/2 phosphorylation in JJN-3 cells; assay type: cell-based; settings: 6 μM ATX-101, 4, 8, 24 h
# [2] = system: peripheral blood monocytes; assay: Multiplex (27-plex) cytokine secretion of TLR-ligand stimulated peripheral blood monocytes; assay type: cell-based, human; settings: 4 h
# Description: Measured cytokine levels were normalized to cytokine levels from monocytes stimulated with TLR ligand alone. A two fold or higher increase in cytokine level after TLR stimulation was defined as cytokine induction. […] Isolated monocytes were stimulated with 10 ng/ml LPS and 40 μg/ml polyIC alone and in combination with 4 μM ATX-101 for 4 h. […] DRAQS was used for nuclear staining. Bar, 5 μm.
# (§1) Data is from one representative donor out of three; and (B-E) show multiplex analysis of cytokine levels produced by peripheral blood monocytes stimulated with 10 ng/ml LPS (B and D, same donor) and 40 μg/ml polyIC (C and E, same donor) after 4 h. (B and C) Stimulated-monocytes were treated with 4 μM ATX-101, 10 μM SB203580 (p38 MAPK inhibitor), and combination of ATX-101 and SB203580. (D and E) Stimulated-monocytes were treated with 4 μM ATX-101, 5 and 10 μM LY294002 (PI3K class I inhibitor), and combination of ATX-101 and LY294002. Measured cytokine levels were normalized to cytokine levels from monocytes stimulated with TLR ligand alone. A two fold or higher increase in cytokine level after TLR stimulation was defined as cytokine induction. # Value is too low to be visible in the column diagram; ? cytokine measurement was out of range. Data is from representative experiments out of two.
# Measured cytokine levels were normalized to cytokine levels from monocytes stimulated with TLR ligand alone. A two fold or higher increase in cytokine level after TLR stimulation was defined as cytokine induction. ? Cytokine measurement was out of range. Data is from one experiment out of two.
# Measured cytokine levels were normalized to cytokine levels from monocytes stimulated with TLR ligand alone. Data is from one donor. We obtained similar results for IL-6 secretion in two other donors.
# Measured cytokine levels were normalized to cytokine levels from monocytes stimulated with TLR ligand alone. A two fold or higher increase in cytokine level after TLR stimulation was defined as cytokine induction. # Value is too low to be visible in the column diagram; 0 Cytokine measurement was out of range. Data is from one experiment out of two.
# Peripheral blood mononuclear cells were isolated from A+ buffy coats (Blood Bank, St. Olav's University Hospital, Trondheim, Norway) by density gradient centrifugation (Lymphoprep; Axis-Shield PoC, Oslo, Norway). Mononucleated cells were seeded at 4 million cells/ml in serum-free RPMI 1640 supplemented with glutamine and gentamicin. After 60-90 min the adherent cell population was washed before cultured in medium with 10% heat-inactivated human serum (Blood Bank, St. Olav's University Hospital). ATX-101 (4 μM [Innovagen, Lund, Sweden]), ATX-A (4 μM, [Innovagen]) (ATX-A is represented in SEQ ID NO: 1206 and contains the motif RALVK (SEQ ID NO: 1207), which is not capable of interacting with PCNA), p38 inhibitor (SB203580, 10 μM, [Sigma-Aldrich]), PI3K inhibitor (LY294002, 5 and 10 μM, [Sigma-Aldrich]), and Akt inhibitor (Akt inhibitor XVIII SC66, 1 μg/ml, [Sigma-Aldrich]) were added in serum-free medium and incubated for 5 min before LPS (10 ng/ml, [Sigma-Aldrich]), polylC (40 μg/ml, [GE Healthcare, Little Chalfont, UK]), PAM3Cys (10 ng/ml, [Invivogen, San Diego, Calif., USA]) or R848 (10 μg/ml, [Invivogen]) were added in serum-containing medium. The cells were incubated for 4 h before the supernatants were harvested and frozen prior to further cytokine analysis by the 27-plex assay (Bio-Plex ProTM Human cytokine 27-plex assay).
# RPMI-8226 = assay: Cell growth/cytotoxicity, multiple myeloma cell line RPMI-8226; assay type: cell-based
# Description: Cells were seeded into 96-well plates and ATX-101, kinase inhibitors (SB203580 and BIRB0796), and polyIC were added alone or in combination at the indicated concentrations. Cells were exposed continuously and harvested every day for the next four days using the MTT (3-(4.5-Dimethylthiazol-2-yl)-2.5 diphenyl-tetrazolium bromide) assay (Gilljam et al., 2009, supra). The average from at least 4 wells was used to calculate cell survival.
# To further elucidate whether ATX-101 directly affected the MAPK and PI3K pathways, we analyzed the phosphorylation levels of downstream kinases in JJN-3 cells at different time points after ATX-101 addition. The phosphorylation of Akt and the p70 S6 kinase (downstream of mTOR) were both decreased by ATX-101 treatment.
# [3] = system: Akt Ser473 phosphorylation; assay: Western blot of Akt Ser473 phosphorylation in peripheral blood monocytes; assay type: cell-based, human; settings: 4 μM ATX-101, 4 h
# Description: as §1
# Mononucleated cells were seeded and stimulated as described above. JJN-3 cells were treated with ATX-101 (6 μM) for 4 h. HaCaT cells were treated with ATX-101 (12 μM), polylC (2 μg/ml), and LPS (100 ng/ml) for 4 h. […] The proteins were visualized with the Odyssey infrared imaging system (LI-COR) and quantified using Odyssey Image Studio V2. […]
substance,measurement,setting,value
Ac-MDRWLVKWKKKRKIRRRRRRRRRRR [ATX-101],ERK1/2 phosphorylation,[1],transient increase
same,"cytokine secretion, combination of ATX-101 and p38 MAPK inhibitor","[2]; LPS or polyIC, 4 μM ATX-101 + 10 μM SB203580",increased reduction of most cytokines
same,"cytokine secretion, combination of ATX-101 and PI3K inhibitor LY294002","[2]; LPS or polyIC, 4 μM ATX-101 + 5 and 10 μM LY294002",reduction in the secretion of some cytokines
same,"cytokine secretion from stimulated monocytes, single agent","[2]; LPS or polyIC, ATX-101 4 μM, SB203580 10 μM, LY294002 5 and 10 μM, SC66 1 μg/ml",reduced cytokine secretion
same,basal level production of CXCL10,"[2]; isolated monocytes, 4 μM",decreased
same,basal level of IL-12,"[2]; monocytes, 4 μM",reduced the basal level of IL-12
same,secretion of LPS-induced cytokines,"[2]; monocytes, 4 μM, 10 ng/ml LPS",efficiently reduced
same,"secretion of CXCL10, CCL2, CCL3 and CCL4 after TLR3 stimulation with polyIC","[2]; monocytes, 4 μM, 40 μg/ml polyIC","reduced the secretion of CXCL10, CCL2, CCL3, and CCL4"
same,cytotoxic effects of melphalan in combination with kinase inhibitors and ATX-101,RPMI-8226,enhanced the cytotoxic effects of melphalan
same,growth-inhibitory effects of ERK5 and MEK1 inhibitors in combination with ATX-101,RPMI-8226,increased the growth-inhibitory effects of ERK5 and MAPK kinase 1 (MEK1) inhibitors
same,LPS- and polyIC-induced and basal Akt phosphorylation,[3],reduced
